# Data from patent publication US6737383B1, “Herbicidal oxadiazolidines” (priority 1999, dated 2004).
# Tests used:
# blackgrass = experiment: Test B pre/postemergence blackgrass; assay type: in vivo, Alopecurus myosuroides; conditions: for Blackgrass plant response rating: scale of 0 to 10 where 0 is no effect and 10 is complete control
# Procedure, shortened: (§1)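 Test chemicals in a non-phytotoxic solvent mixture with surfactant were sprayed preemergence onto planted seeds and postemergence onto plants 2 to 18 cm tall (1- to 4-leaf stage). After twelve to sixteen days in a greenhouse, injury was visually rated against untreated controls from 0 (no effect) to 10 (complete control).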
# cocklebur = experiment: Test B pre/postemergence cocklebur; assay type: in vivo, Xanthium strumarium; conditions: for Cocklebur plant response rating: scale of 0 to 10 where 0 is no effect and 10 is complete control
# Procedure, shortened: as §1
# giant foxtail = experiment: Test B pre/postemergence giant foxtail; assay type: in vivo, Setaria faberii; conditions: for Giant foxtail plant response rating: scale of 0 to 10 where 0 is no effect and 10 is complete control
# Procedure, shortened: as §1
# morningglory = experiment: Test B pre/postemergence morningglory; assay type: in vivo, Ipomoea hederacea; conditions: for Morningglory plant response rating: scale of 0 to 10 where 0 is no effect and 10 is complete control
# Procedure, shortened: as §1
# pigweed = experiment: Test B pre/postemergence pigweed; assay type: in vivo, Amaranthus retroflexus; conditions: for Redroot pigweed plant response rating: scale of 0 to 10 where 0 is no effect and 10 is complete control
# Procedure, shortened: as §1
# rape = experiment: Test B pre/postemergence rape; assay type: in vivo, Brassica napus; conditions: for Rape plant response rating: scale of 0 to 10 where 0 is no effect and 10 is complete control
# Procedure, shortened: as §1
# soybean = experiment: Test B pre/postemergence soybean; assay type: in vivo, Glycine max; conditions: for Soybean plant response rating: scale of 0 to 10 where 0 is no effect and 10 is complete control
# Procedure, shortened: as §1
# sugar beet = experiment: Test B pre/postemergence sugar beet; assay type: in vivo, Beta vulgaris; conditions: for Sugarbeets plant response rating: scale of 0 to 10 where 0 is no effect and 10 is complete control
# Procedure, shortened: as §1
# velvetleaf = experiment: Test B pre/postemergence velvetleaf; assay type: in vivo, Abutilon theophrasti; conditions: for Velvetleaf plant response rating: scale of 0 to 10 where 0 is no effect and 10 is complete control
# Procedure, shortened: as §1
# wheat = experiment: Test B pre/postemergence wheat; assay type: in vivo, Triticum aestivum; conditions: for Wheat plant response rating: scale of 0 to 10 where 0 is no effect and 10 is complete control
# Procedure, shortened: as §1
# wild oat = experiment: Test B pre/postemergence wild oat; assay type: in vivo, Avena fatua; conditions: for Wild oats plant response rating: scale of 0 to 10 where 0 is no effect and 10 is complete control
# Procedure, shortened: as §1
# purple nutsedge = experiment: Test B pre/postemergence purple nutsedge; assay type: in vivo, Cyperus rotundus; conditions: for Nutsedge plant response rating: scale of 0 to 10 where 0 is no effect and 10 is complete control
# Procedure, shortened: as §1
# rice = experiment: Test B flood test rice; assay type: in vivo, Oryza sativa
# Procedure, shortened: (§2)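 Plants were grown to the 2-leaf stage before treatment with test chemical, then held in a greenhouse for twelve to sixteen days. Injury was visually rated against untreated controls on a 0–10 scale, where 0 is no effect and 10 is complete control.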
# smallflower flatsedge = experiment: Test B flood test smallflower flatsedge; assay type: in vivo, Cyperus difformis
# Procedure, shortened: as §2
# duck salad = experiment: Test B flood test duck salad; assay type: in vivo, Heteranthera limosa
# Procedure, shortened: as §2
# bamyardgrass = experiment: Test B flood test barnyardgrass; assay type: in vivo, Echinochloa crus-galli
# Procedure, shortened: as §2
# [1] = Postemergence, Rate 125 g/ha, scale 0 to 10, 0 is no effect, 10 is complete control
# [2] = Postemergence, Rate 250 g/ha, scale 0 to 10, 0 is no effect, 10 is complete control
# [3] = Preemergence, Rate 62 g/ha, scale 0 to 10 (0 no effect, 10 complete control)
# [4] = Rate 500 g/ha, Postemergence, scale 0 to 10, 0 no effect, 10 complete control
# [5] = Rate 62 g/ha, flood test species, Pre-emergence, visual evaluation after twelve to sixteen days
# [6] = Rate 125 g/ha, under heading Pre-emergence, flood test species, visual evaluation after twelve to sixteen days
# [7] = Rate 250 g/ha, Pre-emergence, flood-test species, scale 0 to 10, 0 is no effect, 10 is complete control
# [8] = Rate 500 g/ha, Pre-emergence, flood test species, scale 0 to 10 (0 no effect, 10 complete control)
smiles,measurement,setting,value
CC1CC1n1c(=O)on(C(=O)N(c2ccc(F)cc2)C(C)C)c1=O (stereo not drawn) [Compound 371],"Plant response rating, Blackgrass",blackgrass; [1],2
same,"Plant response rating, Blackgrass",blackgrass; [2],6
same,"Plant response rating, Blackgrass",blackgrass; [3],5
same,Blackgrass plant response rating (0 to 10 scale),"blackgrass; Preemergence, Rate 125 g/ha",9
same,Blackgrass plant response rating,"blackgrass; Preemergence, Rate 250 g/ha",10
same,Blackgrass plant response rating,"blackgrass; Preemergence, Rate 500 g/ha",10
same,Blackgrass plant response rating,"blackgrass; Rate 62 g/ha, Postemergence",2
same,"Plant response rating, Blackgrass",blackgrass; [4],8
same,"Plant response rating, Cocklebur",cocklebur; [1],0
same,"Plant response rating, Cocklebur",cocklebur; [2],0
same,"Plant response rating, Cocklebur",cocklebur; [3],0
same,Cocklebur plant response rating (0 to 10 scale),"cocklebur; Preemergence, Rate 125 g/ha",0
same,Cocklebur plant response rating,"cocklebur; Preemergence, Rate 250 g/ha",0
same,Cocklebur plant response rating,"cocklebur; Preemergence, Rate 500 g/ha",0
same,Cocklebur plant response rating,"cocklebur; Rate 62 g/ha, Postemergence",0
same,"Plant response rating, Cocklebur",cocklebur; [4],0
same,"Plant response rating, Giant foxtail",giant foxtail; [1],7
same,"Plant response rating, Giant foxtail",giant foxtail; [2],8
same,"Plant response rating, Giant foxtail",giant foxtail; [3],10
same,Giant foxtail plant response rating (0 to 10 scale),"giant foxtail; Preemergence, Rate 125 g/ha",10
same,Giant foxtail plant response rating,"giant foxtail; Preemergence, Rate 250 g/ha",10
same,Giant foxtail plant response rating,"giant foxtail; Preemergence, Rate 500 g/ha",10
same,Giant foxtail plant response rating,"giant foxtail; Rate 62 g/ha, Postemergence",5
same,"Plant response rating, Giant foxtail",giant foxtail; [4],9
same,"Plant response rating, Morningglory",morningglory; [1],7
same,"Plant response rating, Morningglory",morningglory; [2],7
same,"Plant response rating, Morningglory",morningglory; [3],0
same,Morningglory plant response rating (0 to 10 scale),"morningglory; Preemergence, Rate 125 g/ha",0
same,Morningglory plant response rating,"morningglory; Preemergence, Rate 250 g/ha",0
same,Morningglory plant response rating,"morningglory; Preemergence, Rate 500 g/ha",3
same,Morningglory plant response rating,"morningglory; Rate 62 g/ha, Postemergence",7
same,"Plant response rating, Morningglory",morningglory; [4],10
same,"Plant response rating, Redroot pigweed",pigweed; [1],0
same,"Plant response rating, Redroot pigweed",pigweed; [2],2
same,"Plant response rating, Redroot pigweed",pigweed; [3],4
same,Redroot pigweed plant response rating (0 to 10 scale),"pigweed; Preemergence, Rate 125 g/ha",10
same,Redroot pigweed plant response rating,"pigweed; Preemergence, Rate 250 g/ha",10
same,Redroot pigweed plant response rating,"pigweed; Preemergence, Rate 500 g/ha",10
same,Redroot pigweed plant response rating,"pigweed; Rate 62 g/ha, Postemergence",0
same,"Plant response rating, Redroot pigweed",pigweed; [4],5
same,"Plant response rating, Rape",rape; [1],0
same,"Plant response rating, Rape",rape; [2],0
same,"Plant response rating, Rape",rape; [3],0
same,Rape plant response rating (0 to 10 scale),"rape; Preemergence, Rate 125 g/ha",4
same,Rape plant response rating,"rape; Preemergence, Rate 250 g/ha",9
same,Rape plant response rating,"rape; Preemergence, Rate 500 g/ha",10
same,Rape plant response rating,"rape; Rate 62 g/ha, Postemergence",0
same,"Plant response rating, Rape",rape; [4],0
same,"Plant response rating, Soybean",soybean; [1],1
same,"Plant response rating, Soybean",soybean; [2],1
same,"Plant response rating, Soybean",soybean; [3],0
same,Soybean plant response rating (0 to 10 scale),"soybean; Preemergence, Rate 125 g/ha",0
same,Soybean plant response rating,"soybean; Preemergence, Rate 250 g/ha",0
same,Soybean plant response rating,"soybean; Preemergence, Rate 500 g/ha",2
same,Soybean plant response rating,"soybean; Rate 62 g/ha, Postemergence",1
same,"Plant response rating, Soybean",soybean; [4],4
same,"Plant response rating, Sugarbeets",sugar beet; [1],0
same,"Plant response rating, Sugarbeets",sugar beet; [2],0
same,"Plant response rating, Sugarbeets",sugar beet; [3],0
same,Sugarbeets plant response rating (0 to 10 scale),"sugar beet; Preemergence, Rate 125 g/ha",6
same,Sugarbeets plant response rating,"sugar beet; Preemergence, Rate 250 g/ha",6
same,Sugarbeets plant response rating,"sugar beet; Preemergence, Rate 500 g/ha",10
same,Sugarbeets plant response rating,"sugar beet; Rate 62 g/ha, Postemergence",0
same,"Plant response rating, Sugarbeets",sugar beet; [4],0
same,"Plant response rating, Velvetleaf",velvetleaf; [1],0
same,"Plant response rating, Velvetleaf",velvetleaf; [2],2
same,"Plant response rating, Velvetleaf",velvetleaf; [3],0
same,Velvetleaf plant response rating (0 to 10 scale),"velvetleaf; Preemergence, Rate 125 g/ha",4
same,Velvetleaf plant response rating,"velvetleaf; Preemergence, Rate 250 g/ha",5
same,Velvetleaf plant response rating,"velvetleaf; Preemergence, Rate 500 g/ha",6
same,Velvetleaf plant response rating,"velvetleaf; Rate 62 g/ha, Postemergence",0
same,"Plant response rating, Velvetleaf",velvetleaf; [4],3
same,"Plant response rating, Wheat",wheat; [1],0
same,"Plant response rating, Wheat",wheat; [2],0
same,"Plant response rating, Wheat",wheat; [3],0
same,Wheat plant response rating (0 to 10 scale),"wheat; Preemergence, Rate 125 g/ha",0
same,Wheat plant response rating,"wheat; Preemergence, Rate 250 g/ha",2
same,Wheat plant response rating,"wheat; Preemergence, Rate 500 g/ha",4
same,Wheat plant response rating,"wheat; Rate 62 g/ha, Postemergence",0
same,"Plant response rating, Wild oats",wild oat; [1],0
same,"Plant response rating, Wild oats",wild oat; [2],3
same,"Plant response rating, Wild oats",wild oat; [3],0
same,Wild oats plant response rating (0 to 10 scale),"wild oat; Preemergence, Rate 125 g/ha",3
same,Wild oats plant response rating,"wild oat; Preemergence, Rate 250 g/ha",3
same,Wild oats plant response rating,"wild oat; Preemergence, Rate 500 g/ha",6
same,Wild oats plant response rating,"wild oat; Rate 62 g/ha, Postemergence",0
same,"Plant response rating, Wild oats",wild oat; [4],4
same,"Plant response rating, Nutsedge",purple nutsedge; [1],0
same,"Plant response rating, Nutsedge",purple nutsedge; [2],0
same,"Plant response rating, Nutsedge",purple nutsedge; [3],0
same,Nutsedge plant response rating (0 to 10 scale),"purple nutsedge; Preemergence, Rate 125 g/ha",0
same,Nutsedge plant response rating,"purple nutsedge; Preemergence, Rate 250 g/ha",5
same,Nutsedge plant response rating,"purple nutsedge; Preemergence, Rate 500 g/ha",9
same,Nutsedge plant response rating,"purple nutsedge; Rate 62 g/ha, Postemergence",0
same,"Plant response rating, Nutsedge",purple nutsedge; [4],0
same,"Plant response rating, Rice (0 to 10 scale, 0 is no effect, 10 is complete control)",rice; [5],0
same,"Rice plant response rating (0 to 10 scale, 0 is no effect, 10 is complete control)",rice; [6],0
same,Rice plant response rating,rice; [7],0
same,Rice plant response rating,rice; [8],5
same,"Plant response rating, S. Flatsedge (0 to 10 scale, 0 is no effect, 10 is complete control)",smallflower flatsedge; [5],0
same,"S. Flatsedge plant response rating (0 to 10 scale, 0 is no effect, 10 is complete control)",smallflower flatsedge; [6],0
same,S. Flatsedge plant response rating,smallflower flatsedge; [7],0
same,S. Flatsedge plant response rating,smallflower flatsedge; [8],3
same,"Plant response rating, Ducksalad (0 to 10 scale, 0 is no effect, 10 is complete control)",duck salad; [5],0
same,"Ducksalad plant response rating (0 to 10 scale, 0 is no effect, 10 is complete control)",duck salad; [6],0
same,Ducksalad plant response rating,duck salad; [7],0
same,Ducksalad plant response rating,duck salad; [8],2
same,"Plant response rating, Barnyardgrass (0 to 10 scale, 0 is no effect, 10 is complete control)",bamyardgrass; [5],0
same,"Barnyardgrass plant response rating (0 to 10 scale, 0 is no effect, 10 is complete control)",bamyardgrass; [6],0
same,Barnyardgrass plant response rating,bamyardgrass; [7],0
same,Barnyardgrass plant response rating,bamyardgrass; [8],7
